Data from US11716994B2, “Combinations of Yersinia entomophaga and pesticides or other substances” (priority 2017, dated 2023).
Read-outs that look alike come from different tables or passages of the source.

Legend:
fall armyworm [1] = test: Leaf disk mortality assay, Y. entomophaga cells with chemical insecticides; details: for LT50 (95% confidence intervals) in days: 4th instar; for mortality at 0.59 µg/mL: Spodoptera frugiperda, foliar; for % Mort. Chem.: fall armyworm, Flubendiamide 0.59 mg/L
fall armyworm [2] = test: Cabbage leaf disk screening of chemical insecticide rates (flubendiamide alone), mortality; type: in vivo; details: 3rd instar
Source text: Chemical insecticides were first screened against insects at a range of rates/concentrations to determine which concentrations would provide a moderate level of activity against the insects. If the chemical rates are too high, it is difficult to observe additional effects provided by the addition of either live Y. entomophaga cells or cell free filtrates of Y. entomophaga cultures.
One example is provided for flubendiamide with fall armyworm. An initial rate was selected that would fall within an expected concentration of active ingredient per volume of water, as indicated on the label of insecticide products containing that active ingredient. For flubendiamide, a concentration of 58.5 mg/L was determined based on these criteria. To create this solution, first a 10× concentration solution was made by dissolving 58.5 mg in 100 mL of acetone. Then, 1:10 dilutions of this solution were made into acetone, resulting in concentrations of the compound of 58.5, 5.85, and 0.585 mg/L. Cabbage leaf disks were dipped in either acetone (controls) or concentrations of flubendiamide at 58.5, 5.85, or 0.585 mg/L in acetone. These were set to dry for 1 hr. […] A total of 10 insects were evaluated for each treatment. Insects were observed daily and the number of dead insects was visually determined (% Mortality).

Yersinia entomophaga = test: CFU counts after exposure of Yersinia entomophaga to insecticides; type: cell-based; details: 1 hour contact
Outline: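 Insecticides at 1× (label-rate based) and 5× or 10× amounts were dried from ethyl acetate as a coat inside tubes. Diluted LB-grown Y. entomophaga culture (1 ml) was added and held 1 hour on the bench. Then 100 μl was plated in triplicate on LB and colonies were counted after 48 hours at 25° C.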

black cutworm [3] = test: Leaf disk mortality assay, Y. entomophaga cells with chemical insecticides; details: for % Mort. Chem.: black cutworm
black cutworm [4] = details: flubendiamide 0.59 mg/L
Procedure: To produce cell free filtrates, cultures of Yersinia entomophaga grown in LB medium were centrifuged at 11,448 (g) for 10 minutes. The supernatant was decanted from the centrifuged pellet and filtered through a 0.22 μm filter. Assays were performed to determine concentrations of Yen-TC (toxin complex) using ELISA, and chitinase by measuring chitinase activity on specific substrates. […] This was done to estimate relative potency of the cell free filtrates. Insects were first pre-screened with a range of dilutions of cell free filtrates to select a concentration that provided moderate activity. […] Based on these initial screens, undiluted cell free filtrate was used for cabbage looper, fall armyworm, black cutworm, and Colorado potato beetle. […] In each of the Examples below, this is expressed as 1%.
Cabbage leaf disks were dipped in either acetone (controls and Y. entomophaga alone treatments) or in indoxacarb (Sigma 33969) at 0.53 mg/L in acetone. These were set to dry for 1 hr. […] After the cabbage disks had dried for 1 hr, a single 2nd instar black cutworm was added to each individual cabbage disk. A total of 20 insects were evaluate for each treatment. Insects were observed daily and scored as live or dead.
Cabbage leaf disks were dipped in either acetone (controls and Y. entomophaga alone treatments) or in flubendiamide (Sigma 32801) at 0.59 mg/L in acetone. These were set to dry for 1 hr. […] After the cabbage disks had dried for 1 hr, a single 2nd instar black cutworm was added to each individual cabbage disk. A total of 20 insects were evaluate for each treatment. Insects were observed daily and scored as live or dead.

diamondback moth = test: whole plant or invertebrate; details: flubendiamide 0.059 mg/L; for mortality at 0.059 µg/mL: Plutella xylostella, foliar, Abbott's corrected
Source text: (§1) These were set to dry for 1 hr.
as §1
These were set to dry for 1 hr. Cabbage disks were then dipped in either 1% Luria broth (LB) media solution (controls and thiacloprid alone treatments) or in 1% cell free filtrate from a culture Y. entomophaga isolate O24G3R (Y. entomophaga alone or in combination with thiacloprid treatments).

[5] = 3rd instar, flubendiamide 0.20 mg/L, isolate O23ZMJ 1×10^4 cfu/mL
[6] = 3rd instar, flubendiamide 0.20 mg/L, isolate O348UX 1×10^4 cfu/mL
[7] = 3rd instar, flubendiamide 0.59 mg/L, isolate O43NEW 1×10^4 cfu/mL

Cc1cc(C(F)(C(F)(F)F)C(F)(F)F)ccc1NC(=O)c1cccc(I)c1C(=O)NC(C)(C)CS(C)(=O)=O [Flubendiamide]
LT50 (95% confidence intervals) (fall armyworm [1]; 3rd instar, flubendiamide 0.59 mg/L, isolate O43NEW 1×10^6 cfu/mL): 18.28 days
LT50 (95% confidence intervals) in days (fall armyworm [1]; flubendiamide 0.59 mg/L, isolate O23ZMJ 1×10^5 cfu/mL): 7.46 (6.86-8.10) days
LT50 (95% confidence intervals) in days (fall armyworm [1]; flubendiamide 0.59 mg/L, isolate O24G3R 1×10^5 cfu/mL): 7.46 (6.86-8.10) days
LT50 (95% confidence intervals) in days (fall armyworm [1]; flubendiamide 0.59 mg/L, isolate O348UX 1×10^5 cfu/mL): 7.46 (6.86-8.10) days
mortality at 0.59 µg/mL (fall armyworm [1]; 96 h, read-out: % Mortality (4DAT), 4th instar, flubendiamide 0.59 mg/L, isolate O23ZMJ 1×10^5 cfu/mL): 0%
mortality at 0.59 µg/mL (fall armyworm [1]; 96 h, read-out: % Mortality (4DAT), 4th instar, flubendiamide 0.59 mg/L, isolate O24G3R 1×10^5 cfu/mL): 0%
mortality at 0.59 µg/mL (fall armyworm [1]; 96 h, read-out: % Mortality (4DAT), 4th instar, flubendiamide 0.59 mg/L, isolate O348UX 1×10^5 cfu/mL): 0%
mortality at 0.59 µg/mL (fall armyworm [1]; 120 h, read-out: % Mortality (5DAT), 4th instar, flubendiamide 0.59 mg/L, isolate O348UX 1×10^5 cfu/mL): 30%
mortality at 0.59 µg/mL (fall armyworm [1]; 144 h, read-out: % Mortality (6DAT), 3rd instar, flubendiamide 0.59 mg/L, isolate O43NEW 1×10^6 cfu/mL): 0%
mortality at 0.59 µg/mL (fall armyworm [1]; 144 h, read-out: % Mortality (6DAT), 4th instar, flubendiamide 0.59 mg/L, isolate O24G3R 1×10^5 cfu/mL): 26%
mortality at 0.59 µg/mL (fall armyworm [1]; 144 h, read-out: % Mortality (6DAT), 4th instar, flubendiamide 0.59 mg/L, isolate O348UX 1×10^5 cfu/mL): 26%
mortality at 0.59 µg/mL (fall armyworm [1]; 168 h, read-out: % Mortality (7DAT), 3rd instar, flubendiamide 0.59 mg/L, isolate O43NEW 1×10^6 cfu/mL): 0%
mortality at 0.59 µg/mL (fall armyworm [1]; 264 h, read-out: % Mortality (11DAT), 3rd instar, flubendiamide 0.59 mg/L, isolate O43NEW 1×10^6 cfu/mL): 18%
mortality at 0.59 µg/mL (fall armyworm [1]; […], read-out: % Mortality (8DAT), 3rd instar, flubendiamide 0.59 mg/L, isolate O43NEW 1×10^6 cfu/mL): 5%
% Mort. Chem. (fall armyworm [1]; 4 DAT): 26%
% Mort. Chem. (fall armyworm [1]; 6 DAT (row with O23ZMJ)): 0%
% Mort. Chem. (fall armyworm [1]; 6 DAT (row with O348UX)): 26%
% Mort. Chem. (fall armyworm [1]; 7 DAT): 0%
% Mort (4DAT) (fall armyworm [2]; flubendiamide at 0.585 mg/L): 0%
% Mort (5DAT) (fall armyworm [2]; flubendiamide at 0.585 mg/L): 10%
% Mort (6DAT) (fall armyworm [2]; flubendiamide at 0.585 mg/L): 10%
% Mort (7DAT) (fall armyworm [2]; flubendiamide at 0.585 mg/L): 10%
% Mort (8DAT) (fall armyworm [2]; flubendiamide at 0.585 mg/L): 10%
% Mort (11DAT) (fall armyworm [2]; flubendiamide at 0.585 mg/L): 20%
% Mort (12DAT) (fall armyworm [2]; flubendiamide at 0.585 mg/L): 30%
LT50 (95% confidence intervals) (fall armyworm [2]; flubendiamide at 0.585 mg/L): 14.38 days
% Mort (4DAT) (fall armyworm [2]; flubendiamide at 5.85 mg/L): 10%
% Mort (5DAT) (fall armyworm [2]; flubendiamide at 5.85 mg/L): 30%
% Mort (6DAT) (fall armyworm [2]; flubendiamide at 5.85 mg/L): 90%
% Mort (7DAT) (fall armyworm [2]; flubendiamide at 5.85 mg/L): 100%
% Mort (8DAT) (fall armyworm [2]; flubendiamide at 5.85 mg/L): 100%
% Mort (11DAT) (fall armyworm [2]; flubendiamide at 5.85 mg/L): 100%
% Mort (12DAT) (fall armyworm [2]; flubendiamide at 5.85 mg/L): 100%
LT50 (95% confidence intervals) (fall armyworm [2]; flubendiamide at 5.85 mg/L): 4.61 days
% Mort (4DAT) (fall armyworm [2]; flubendiamide at 58.5 mg/L): 70%
% Mort (5DAT) (fall armyworm [2]; flubendiamide at 58.5 mg/L): 90%
% Mort (6DAT) (fall armyworm [2]; flubendiamide at 58.5 mg/L): 100%
% Mort (7DAT) (fall armyworm [2]; flubendiamide at 58.5 mg/L): 100%
% Mort (8DAT) (fall armyworm [2]; flubendiamide at 58.5 mg/L): 100%
% Mort (11DAT) (fall armyworm [2]; flubendiamide at 58.5 mg/L): 100%
% Mort (12DAT) (fall armyworm [2]; flubendiamide at 58.5 mg/L): 100%
LT50 (95% confidence intervals) (fall armyworm [2]; flubendiamide at 58.5 mg/L): 2.88 days
Average CFU (Yersinia entomophaga; 0.5 mg insecticide): 328 CFU
Average CFU (Yersinia entomophaga; 5.0 mg insecticide): 0 CFU
% Mortality (5DAT) (black cutworm [3]; 3rd instar black cutworm, flubendiamide 0.20 mg/L, Y. entomophaga isolate O24G3R 1 × 10^4 CFU/mL, 5 DAT, Abbott's corrected): 31%
% Mortality (6DAT) (black cutworm [3]; 3rd instar black cutworm, flubendiamide 0.20 mg/L, Y. entomophaga isolate O24G3R 1 × 10^4 CFU/mL, 6 DAT, Abbott's corrected): 44%
% Mortality (7DAT) (black cutworm [3]; 3rd instar black cutworm, flubendiamide 0.20 mg/L, Y. entomophaga isolate O24G3R 1 × 10^4 CFU/mL, 7 DAT, Abbott's corrected): 69%
LT50 (95% confidence intervals) in days (black cutworm [3]; 3rd instar black cutworm, flubendiamide 0.20 mg/L, Y. entomophaga isolate O24G3R 1 × 10^4 CFU/mL, Probit analysis): 4.83 (4.34-5.37) days
% Mortality (5DAT) (black cutworm [3]; [5]): 31%
% Mortality (6DAT) (black cutworm [3]; [5]): 44%
% Mortality (7DAT) (black cutworm [3]; [5]): 69%
LT50 (95% confidence intervals) in days (black cutworm [3]; [5]): 4.83 (4.34-5.37) days
% Mortality (5DAT) (black cutworm [3]; [6]): 31%
% Mortality (6DAT) (black cutworm [3]; [6]): 44%
% Mortality (7DAT) (black cutworm [3]; [6]): 69%
LT50 (95% confidence intervals) in days (black cutworm [3]; [6]): 4.83 (4.34-5.37) days
% Mortality (4DAT) (black cutworm [3]; [7]): 21%
% Mortality (5DAT) (black cutworm [3]; [7]): 22%
% Mortality (6DAT) (black cutworm [3]; [7]): 44%
LT50 (95% confidence intervals) in days (black cutworm [3]; [7]): 4.99 (4.53-5.48) days
% Mort. Chem. (black cutworm [3]; Flubendiamide 0.2 mg/L, 5 DAT (row with O23ZMJ)): 31%
% Mort. Chem. (black cutworm [3]; Flubendiamide 0.2 mg/L, 5 DAT (row with O24G3R)): 31%
% Mort. Chem. (black cutworm [3]; Flubendiamide 0.2 mg/L, 5 DAT (row with O348UX)): 31%
% Mort. Chem. (black cutworm [3]; Flubendiamide 0.59 mg/L, 6 DAT): 44%
LT50 (95% confidence intervals) (black cutworm [4]; 2nd instar black cutworm, undiluted O43NEW filtrate, Probit analysis): 7.05 days
LT50 Chem. (black cutworm [4]; Black cutworm): 7.05 days
% Mort. Chem. (black cutworm [4]; Black cutworm, 7 DAT): 42%
% Mortality (5DAT) (black cutworm [4]; black cutworm, undiluted O43NEW filtrate, 5 DAT, Abbott's corrected): 0%
% Mortality (6DAT) (black cutworm [4]; black cutworm, undiluted O43NEW filtrate, 6 DAT, Abbott's corrected): 37%
% Mortality (7DAT) (black cutworm [4]; black cutworm, undiluted O43NEW filtrate, 7 DAT, Abbott's corrected): 42%
% Mortality (8DAT) (black cutworm [4]; black cutworm, undiluted O43NEW filtrate, 8 DAT, Abbott's corrected): 53%
% Mortality (9DAT) (black cutworm [4]; black cutworm, undiluted O43NEW filtrate, 9 DAT, Abbott's corrected): 74%
LT50 (95% confidence intervals) (diamondback moth; 2nd instar diamondback moth, 1% O43NEW filtrate, Probit analysis): 6.52 days
LT50 Chem. (diamondback moth; Diamondback moth): 6.52 days
% Mort. Chem. (diamondback moth; Diamondback moth, 6 DAT): 32%
mortality at 0.059 µg/mL (diamondback moth; 96 h, read-out: % Mortality (4DAT), diamondback moth, 1% O43NEW filtrate, 4 DAT): 16%
mortality at 0.059 µg/mL (diamondback moth; 120 h, read-out: % Mortality (5DAT), diamondback moth, 1% O43NEW filtrate, 5 DAT): 32%
mortality at 0.059 µg/mL (diamondback moth; 144 h, read-out: % Mortality (6DAT), diamondback moth, 1% O43NEW filtrate, 6 DAT): 32%
mortality at 0.059 µg/mL (diamondback moth; 168 h, read-out: % Mortality (7DAT), diamondback moth, 1% O43NEW filtrate, 7 DAT): 58%
mortality at 0.059 µg/mL (diamondback moth; 264 h, read-out: % Mortality (11DAT), diamondback moth, 1% O43NEW filtrate, 11 DAT): 67%
